Source: patent US12595504B2, “Methods for screening compounds for bactericidal activity and for determining the sensitivity of bacterial samples” (priority 2020, dated 2026)
≈ marks a conversion by molar mass, not a printed value. Read-outs that look alike come from different tables or passages of the source.

Legend:
[1] = Comparative stability assay of classical and thermostable luciferase at 37° C.; assay type: physicochemical
Protocol: For performing this assay, a classical luciferase (firefly luciferase; Molecular Probes ATP determination kit A22066) and the thermostable luciferase (Checklite kit, Kikkoman, AAE43251.1) were used according to the manufacturer's instructions. Both types of luciferases were added to rich LB or minimal MOPS-Glucose media pre-heated at 37° C. At various times during incubation, aliquots of the solutions were collected, supplemented with reagents and mixed with 0.8 pmole of ATP for bioluminescence readings. Immediately after mixing, bioluminescence measurements were performed at 37° C. using an InfinitePro200, TECAN plate reader in a total volume of 12 μL on a 384-wells microtiter plate (Greiner Bio-one, 784076).

[2] = target: T1, thermostable luciferase (Nipponoluciola cruciata, UniProt P13129, A536K/G484A/G534A/I532L/M501V/N494T/N510T/P452A/P477D/R513K/R519V/S465N/S491H/S509T/T217I/T219I/V239I/V459I/V474L/V478D/V500I); assay type: biochemical
T1 construct: purchased Kikkoman CheckLite AT100
T1 sequence (P13129 other isoform, or with tags, fused parts or gaps with the stated changes): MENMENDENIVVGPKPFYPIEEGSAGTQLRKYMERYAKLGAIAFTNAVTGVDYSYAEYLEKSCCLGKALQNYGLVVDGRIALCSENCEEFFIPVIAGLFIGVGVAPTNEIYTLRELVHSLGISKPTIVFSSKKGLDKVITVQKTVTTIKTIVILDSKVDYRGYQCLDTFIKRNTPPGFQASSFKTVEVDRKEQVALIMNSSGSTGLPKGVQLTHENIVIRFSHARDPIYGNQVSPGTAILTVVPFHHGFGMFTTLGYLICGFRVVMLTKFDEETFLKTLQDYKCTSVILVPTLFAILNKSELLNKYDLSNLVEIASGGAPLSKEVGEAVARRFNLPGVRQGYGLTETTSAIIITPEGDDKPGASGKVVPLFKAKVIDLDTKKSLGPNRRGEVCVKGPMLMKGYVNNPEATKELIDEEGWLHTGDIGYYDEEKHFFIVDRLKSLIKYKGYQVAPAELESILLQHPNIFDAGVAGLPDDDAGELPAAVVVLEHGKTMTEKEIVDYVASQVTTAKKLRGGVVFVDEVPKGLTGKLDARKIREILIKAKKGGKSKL
Protocol: FIG. 5. […] The luciferase-luciferin reagent was preincubated 40 min at 37° C. in presence of various antibiotics in LB before the addition of 30 nM ATP (in the absence of bacteria).
(§1) The classical luciferase was from Molecular Probes (ATP Determination Kit (A22066)). The thermostable luciferase was from “CheckLite AT100” (kikkoman). The Luciferin-luciferase reagents were prepared following manufacturer instructions. Bacteria from exponentially growing cultures (OD600=0.3) were added to each well (60 μl/well) of a black 96-microtiter plate (Greiner Bio-one, 655076) and 20 μl of the luciferin-luciferase reagent solution was added. The microtiter plate was incubated 5 min at 37° C. for reaction with the luciferase to eliminate traces of extracellular ATP. Then 40 μl of antibiotic solution (3 times concentrated) prepared in the culture medium were added. Bioluminescence of each well was monitored for 4 hours under shaking (218 rpm) and at 28 or 37° C., depending on the experiments (see legends of Figures). The reagent stability in presence or absence of antibiotics was checked in control experiments without bacteria but with 4 pmoles of ATP. […]
Bioluminescence was thus measured after preincubation of luciferase-lucifering reagent with the antibiotics at their maximal concentration used in this study in LB before the addition of 30 nM ATP (in the absence of bacteria).

[3] = system: Escherichia coli MG1655; assay: Antibiotic MIC determination (serial twofold dilutions, OD600 during 17 hours at 37° C.); assay type: cell-based; settings: for MIC: Escherichia coli
Protocol: The Minimal Inhibitory Concentration (MIC) of the antibiotics was determined under the same culture conditions as the tests using the ATP assay kit. […] An exponentially growing culture (OD600=0.3) was added to each well (60 μl/well) of a sterile microtiter plate containing the test concentration of antibiotic (40 μl/well). The volume was completed to 120 μl with medium and OD600 nm measurements were performed using a microtiter plate reader (Infinite 200 PRO, TECAN) during 17 hours at 37° C.
In all the following experiments, the MIC values were measured for each antibiotic with parameters such as temperature, OD600 and equipment identical to those used for the bioluminescence assay.

[4] = system: E. coli MG1655 reporter cells; assay type: cell-based, Escherichia coli
Protocol: The classical luciferase was from Molecular Probes (ATP Determination Kit (A22066)). The thermostable luciferase was from “CheckLite AT100” (kikkoman). The Luciferin-luciferase reagents were prepared following manufacturer instructions. Bacteria from exponentially growing cultures (OD600=0.3) were added to each well (60 μl/well) of a black 96-microtiter plate (Greiner Bio-one, 655076) and 20 μl of the luciferin-luciferase reagent solution was added. The microtiter plate was incubated 5 min at 37° C. for reaction with the luciferase to eliminate traces of extracellular ATP. Then 40 μl of antibiotic solution (3 times concentrated) prepared in the culture medium were added. Bioluminescence of each well was monitored for 4 hours under shaking (218 rpm) and at 28 or 37° C., depending on the experiments (see legends of Figures). The reagent stability in presence or absence of antibiotics was checked in control experiments without bacteria but with 4 pmoles of ATP. Tests were also performed in 384-microtiter plates (Greiner Bio-one, 784076).
Aminoglycosides are bactericidal antibiotics causing translational miscoding with lethal consequences for the cell. Leakage of small molecules following an aminoglycoside shock was previously identified by different methods including radiolabelling. Therefore, the inventors investigated the response of live cells to aminoglycoside stress.

[5] = system: E. coli; assay: Survival assay (kill curves, CFU) with neomycin; assay type: cell-based, Escherichia coli; settings: different neomycin concentrations, LB
[6] = system: E. coli MG1655 KanR; assay: ATP leakage assay on aminoglycoside resistant strain (KanR, APH(3′)-IIa); assay type: cell-based, Escherichia coli; settings: MOPS minimal medium (glucose 0.4%), increasing concentrations, 37° C.
Protocol: FIG. 7. Absence of ATP leakage with an aminoglycoside resistant strain E. coli MG1655. The resistant strain (MG KanR) contains the gene for expression of the aminoglycoside O-phosphotransferase APH(3′)-IIa. ATP release of resistant (KanR) or non-resistant (WT) MG 1655 E. coli cells exposed in MOPS minimal medium (glucose 0.4%) to increasing concentrations of neomycin at 37° C. ATP leakage was absent for the resistant strain (KanR).
as §1

[7] = system: biofilm of the multidrug-resistant Staphylococcus aureus USA300 strain; assay: Drug dependent ATP release from biofilm; assay type: cell-based; settings: washed biofilm, 37° C., FIG. 20b
Protocol: FIG. 20. Drug dependent ATP release from biofilm of the multidrug-resistant Staphylococcus aureus USA300 strain. A, Control experiment at 37° C. in absence of antibiotic. Biofilms were washed with MOPS medium prior to be exposed to neomycin in the bioluminescent assay. Biofilms were obtained as described in the Examples section and washed twice with MOPS-G medium. Wash solutions were tested for the presence of ATP with the bioluminescence assay. […] Washed biofilms were then tested for ATP release. Signals were present in the first 40 min. This ATP release probably originates from shaking of the biofilm in the plate reader with physical perturbation of the biofilm. B, Biofilm response at 37° C. to drug exposure.
Biofilms were produced by following standard protocols. Briefly, S. aureus USA300 was incubated overnight in tryptic-soy broth (with 0.25% glucose) at 37° C. with 180 rpm agitation. Wells of a FLUOTRAC™ microplate (sterilized beforehand) were then filled with 150 μl of the inoculated broth previously diluted to obtain average concentrations between 10^5-10^6 CFU/ml. The microplate was covered and incubated at 37° C. for 18 hours. Biofilms were then washed twice with 150 μl of MOPS. 80 μl of the wash solution was not discarded and placed in an adjacent well to observe the quantity of ATP it contained. […]

[8] = system: S. aureus USA300; assay: CFU kill assay of stationary phase cells with or without centrifugation; assay type: cell-based, Staphylococcus aureus
Protocol: FIG. 4. A. Centrifugation with change for fresh medium prior to aminoglycoside exposure stimulates drug bactericidal effect. S. aureus USA300 in TSB medium with 0.25% glucose was incubated until stationary phase has been reached at 37° C. Cells were either centrifuged at 12 000 rpm for 5 minutes (+) or placed at 37° C. without centrifugation (≠). After centrifugation, pellets were washed with fresh broth and placed at 37° C. Depending on the test, different concentrations of neomycin were added. S. aureus USA300 samples that were centrifuged and washed with fresh broth are more sensitive to neomycin. For instance, bacterial CFU go below the detection threshold (10^2 CFU/ml) at 2 hours for 8 mM and 2 mM concentrations while it takes 2 more hours for the 0.5 mM concentration. Bars represent the standard error from the mean (SEM) calculated on GraphPad Prism version 8.4.1. B. S. aureus USA300 in TSB medium with 0.25% glucose was incubated until stationary phase has been reached at 37° C. Cells were either centrifuged at 12 000 rpm for 5 minutes or placed at 37° C. without centrifugation. After centrifugation, pellets were washed with fresh broth and placed at 37° C. A volume of 100 μL of fresh media with 4 mM of neomycin was added to all the tubes (final concentration at 2 mM), centrifuged or not, 5, 15, 30, 60 and 120 minutes post-centrifugation. Samples were incubated for a total of 2 hours with the neomycin before being washed three times with PBS 1×, diluted and incubated on tryptic soy agar. The next day, colony forming units/mL were counted. Bars represent the standard deviation (SD) calculated on GraphPad Prism version 8.4.3.

[9] = MG1655, read-out: MIC in MOPS glucose 0.4%, MOPS minimal medium glucose 0.4%, 37° C.
[10] = MG1655, LB medium, OD600 0.15 final, 37° C., read-out: MIC in LB
[11] = LB medium, OD600 0.15 final, 37° C.

classical firefly luciferase: firefly luciferase; Molecular Probes ATP determination kit A22066, not thermostable
Loss of activity ([1]; LB medium, after 12 minutes of incubation): 70%
Loss of activity ([1]; minimal MOPS-G medium, in 30 minutes): more than 80%

COc1cc(Cc2cnc(N)nc2N)cc(OC)c1OC [Trimethoprim]
Concentration above which the drug inhibits the luciferase reaction [2]: above 200 μg/mL
MIC [3, 9]: 6.25 µg/mL (≈ 21.5 µM)
MIC [3, 10]: 50 µg/mL (≈ 172 µM)

COc1ccc(C[C@H](N)C(=O)N[C@H]2[C@@H](O)[C@H](n3cnc4c(N(C)C)ncnc43)O[C@@H]2CO)cc1 [Puromycin]
Effect on the activity of the bioluminescence assay ([2]; preincubation with antibiotic in LB, 30 nM ATP, no bacteria, inhibition only at concentration above the MIC): significant inhibition of bioluminescence
ATP leakage ([4]; sub-MIC concentrations, LB, FIG. 9): very weak leakage
MIC [3, 9]: 871 µg/mL (≈ 1850 µM)
MIC [3, 10]: 435 µg/mL (≈ 923 µM)
MIC in LB [3, 11]: 377 µg/mL (≈ 800 µM)

Neomycin
Number of colonies forming units (CFU) during the first 90 minutes [5]: remained constant
ATP leakage [6]: absent
ATP release from biofilm [7]: triggered ATP release
Shape of ATP release trace ([4]; LB medium, 37° C., FIG. 8): bi-phasic
Shape of ATP release trace ([4]; MOPS minimal medium (glucose 0.4%), FIG. 11): monophasic
Lag time before ATP ([4]; antibiotic at 5.6 μg/mL, LB, 37° C.): 48.6 min
Lag time before ATP ([4]; antibiotic at 11.25 μg/mL, LB, 37° C.): 42.4 min
Lag time before ATP ([4]; antibiotic at 22.8 μg/mL, LB, 37° C.): 16.3 min
Lag time before ATP ([4]; antibiotic at 45.0 μg/mL, LB, 37° C.): 12.8 min
Lag time before ATP ([4]; antibiotic at 91.0 μg/mL, LB, 37° C.): 9.4 min
Lag before ATP release (shortest, incompressible value) ([4]; highest concentrations tested, LB, 37° C.): about 9.4 min
MIC in LB [3, 11]: 22.8 µg/mL
MIC in MOPS glucose 0.4% ([3]; MOPS minimal medium glucose 0.4%, 37° C.): 0.8 µg/mL
Experimental MIC ([3]; Mueller Hinton media, EUCAST inoculum): 3.12 µg/mL
Time at which bacterial CFU go below the detection threshold (10^2 CFU/ml) ([8]; 0.5 mM, samples centrifuged and washed, compared with 8 mM and 2 mM): 2 more hours
Time at which bacterial CFU go below the detection threshold (10^2 CFU/ml) ([8]; 2 mM, samples centrifuged and washed with fresh broth): 2 hours
Time at which bacterial CFU go below the detection threshold (10^2 CFU/ml) ([8]; 8 mM, samples centrifuged and washed with fresh broth): 2 hours
